According to US20040076968A1, “Method for detecting pre-disposition to hepatotoxicity” (priority 2000, published 2004):

System: UGT1A6 gene
Experiment: Association of UGT1A6 polymorphisms with liver function abnormality in tolcapone-treated patients (case-control genotyping)
Type: in vivo, human
Experimental: Disease severity had already been controlled for by the original study inclusion criteria.
In the KTC format, the generation of double-stranded amplification product is monitored using a DNA intercalating dye and a thermal cycler which has a fluorescence-detecting CCD camera attached (PE-Bipsystems GeneAmp 5700 Sequence Detection System). Fluorescence in each well of the PCR amplification plate is measured at each cycle of annealing and denaturation. The cycle at which the relative fluorescence reached a threshold of 0.5 using the SDS sofiware from PE-Biosystems was defined as the Ct.
The amplification reactions were designed to be allele-specific, so that the amplification reaction was positive if the polymorphism was present and the amplification reaction was negative if the polymorphism was absent. For each bi-allelic polymorphism, one well of the amplification plate was set up to be specific for allele 1 and a second well was set up to be specific for allele 2. For each polymorphism to be detected, three primers were designed—two allele-specific primers and one common primer (Table 3). Reactions for allele 1 contained allele 1-specific primer and the common primer and reactions for allele 2 contained allele 2-specific primer and the common primer.
The Ct of each amplification reaction was determined and the difference between the Ct for allele 1 and allele 2 (delta Ct) was, used as the assay result. Samples with delta Cts between −3.0 and 3.0 were considered heterozygous (A1/A2). Samples with delta Cts below −3.0 were considered homozygous for A1 (A1/A1); samples with delta Cts above 3.0 were considered homozygous for A2 (A2/A2).
For all other single nucleotide polymorphisms (SNPs) discovery and genotyping was done by double-stranded DNA sequencing using an ABI capillary sequencer and Big Dye chemistry (ABI). The primers used to amplify all exons are shown below and were also used as sequencing primers. Publicly available genomic sequences were used as references for primer design. All polymorphisms were targeted with these pairs-of-primer sets:
The patient samples were divided into two groups.
For each genotype, the following analyses were performed:
a) Analysis of the entire genotype: patients were classified according to the following three categories: homozygous 1/1 (two copies of allele 1 and no copies of allele 2), heterozygous 1/2 (one copy of allele 1 and one copy of allele 2) or homozygous 2/2 (no copies of allele 1 and two copies of allele 2). Analysis was conducted to assess whether there were differences in the proportion of case patients in each of these groups, compared with the proportion of control patients. The Cochran-Maentel-Hanszel (CMH) test was applied to the data presented in a 2-by-3 table (the two columns indicating presence or absence of liver function abnormality and the three rows indicating the three categories of the genotype).
b) Analysis of alleles: the presence of allele 1 or 2 in case patients was compared to the presence of the respective allele in the control patients.
c) Analysis of allele counts: this analysis was conducted to compare the distribution of the alleles in patients with liver function abnormality to that of patients without abnormality. The total number of copies of allele 1 among patients with liver function abnormality was compared with the total number of copies of allele 2 among these case patients.

SMILES: Cc1ccc(C(=O)c2cc(O)c(O)c([N+](=O)[O-])c2)cc1 [tolcapone]
- n (%) of allele copies (UGT1A6_528 A/G, Count Allele A, Liver Function Abnormality Absent): 372 (70.2%)
- n (%) of allele copies (UGT1A6_528 A/G, Count Allele A, Liver Function Abnormality Present): 148 (56.9%)
- n (%) of allele copies (UGT1A6_528 A/G, Count Allele G, Liver Function Abnormality Absent): 158 (29.8%)
- n (%) of allele copies (UGT1A6_528 A/G, Count Allele G, Liver Function Abnormality Present): 112 (43.1%)
- n (%) of patients (UGT1A6_528 A/G, Genotype Heterozygous A/G, Liver Function Abnormality Absent): 114 (43.0%)
- n (%) of patients (UGT1A6_528 A/G, Genotype Heterozygous A/G, Liver Function Abnormality Present): 60 (46.2%)
- n (%) of patients (UGT1A6_528 A/G, Genotype Homozygous A/A, Liver Function Abnormality Absent): 129 (48.7%)
- n (%) of patients (UGT1A6_528 A/G, Genotype Homozygous A/A, Liver Function Abnormality Present): 44 (33.8%)
- n (%) of patients (UGT1A6_528 A/G, Genotype Homozygous G/G, Liver Function Abnormality Absent): 22 (8.3%)
- n (%) of patients (UGT1A6_528 A/G, Genotype Homozygous G/G, Liver Function Abnormality Present): 26 (20.0%)
- n (%) of patients (UGT1A6_754 Thr181Ala, Allele Ala Absent, Liver Function Abnormality Absent): 144 (52.6%)
- n (%) of patients (UGT1A6_754 Thr181Ala, Allele Ala Absent, Liver Function Abnormality Present): 51 (37.8%)
- n (%) of patients (UGT1A6_754 Thr181Ala, Allele Ala Present, Liver Function Abnormality Absent): 130 (47.4%)
- n (%) of patients (UGT1A6_754 Thr181Ala, Allele Ala Present, Liver Function Abnormality Present): 84 (62.2%)
- n (%) of patients (UGT1A6_754 Thr181Ala, Allele Thr Absent, Liver Function Abnormality Absent): 22 (8.0%)
- n (%) of patients (UGT1A6_754 Thr181Ala, Allele Thr Absent, Liver Function Abnormality Present): 25 (18.5%)
- n (%) of patients (UGT1A6_754 Thr181Ala, Allele Thr Present, Liver Function Abnormality Absent): 252 (92.0%)
- n (%) of patients (UGT1A6_754 Thr181Ala, Allele Thr Present, Liver Function Abnormality Present): 110 (81.5%)
- n (%) of allele copies (UGT1A6_754 Thr181Ala, Count Allele Ala, Liver Function Abnormality Absent): 152 (27.7%)
- n (%) of allele copies (UGT1A6_754 Thr181Ala, Count Allele Ala, Liver Function Abnormality Present): 109 (40.4%)
- n (%) of allele copies (UGT1A6_754 Thr181Ala, Count Allele Thr, Liver Function Abnormality Absent): 396 (72.3%)
- n (%) of allele copies (UGT1A6_754 Thr181Ala, Count Allele Thr, Liver Function Abnormality Present): 161 (59.6%)
- n (%) of patients (UGT1A6_754 Thr181Ala, Genotype Heterozygous Thr/Ala, Liver Function Abnormality Absent): 108 (39.4%)
- n (%) of patients (UGT1A6_754 Thr181Ala, Genotype Heterozygous Thr/Ala, Liver Function Abnormality Present): 59 (43.7%)
- n (%) of patients (UGT1A6_754 Thr181Ala, Genotype Homozygous Ala/Ala, Liver Function Abnormality Absent): 22 (8.8%)
- n (%) of patients (UGT1A6_754 Thr181Ala, Genotype Homozygous Ala/Ala, Liver Function Abnormality Present): 25 (18.5%)
- n (%) of patients (UGT1A6_754 Thr181Ala, Genotype Homozygous Thr/Thr, Liver Function Abnormality Absent): 144 (52.6%)
- n (%) of patients (UGT1A6_754 Thr181Ala, Genotype Homozygous Thr/Thr, Liver Function Abnormality Present): 51 (37.8%)
- n (%) of patients (UGT1A6_765 Arg184Ser, Allele Arg Absent, Liver Function Abnormality Absent): 24 (8.8%)
- n (%) of patients (UGT1A6_765 Arg184Ser, Allele Arg Absent, Liver Function Abnormality Present): 26 (19.3%)
- n (%) of patients (UGT1A6_765 Arg184Ser, Allele Arg Present, Liver Function Abnormality Absent): 250 (91.2%)
- n (%) of patients (UGT1A6_765 Arg184Ser, Allele Arg Present, Liver Function Abnormality Present): 109 (80.7%)
- n (%) of patients (UGT1A6_765 Arg184Ser, Allele Ser Absent, Liver Function Abnormality Absent): 128 (46.7%)
- n (%) of patients (UGT1A6_765 Arg184Ser, Allele Ser Absent, Liver Function Abnormality Present): 45 (33.3%)
- n (%) of patients (UGT1A6_765 Arg184Ser, Allele Ser Present, Liver Function Abnormality Absent): 146 (53.3%)
- n (%) of patients (UGT1A6_765 Arg184Ser, Allele Ser Present, Liver Function Abnormality Present): 90 (66.7%)
- n (%) of allele copies (UGT1A6_765 Arg184Ser, Count Allele Arg, Liver Function Abnormality Absent): 378 (69.0%)
- n (%) of allele copies (UGT1A6_765 Arg184Ser, Count Allele Arg, Liver Function Abnormality Present): 154 (57.0%)
- n (%) of allele copies (UGT1A6_765 Arg184Ser, Count Allele Ser, Liver Function Abnormality Absent): 170 (31.0%)
- n (%) of allele copies (UGT1A6_765 Arg184Ser, Count Allele Ser, Liver Function Abnormality Present): 116 (43.0%)
- n (%) of patients (UGT1A6_765 Arg184Ser, Genotype Heterozygous Arg/Ser, Liver Function Abnormality Absent): 122 (44.5%)
- n (%) of patients (UGT1A6_765 Arg184Ser, Genotype Heterozygous Arg/Ser, Liver Function Abnormality Present): 64 (47.4%)
- n (%) of patients (UGT1A6_765 Arg184Ser, Genotype Homozygous Arg/Arg, Liver Function Abnormality Absent): 128 (46.7%)
- n (%) of patients (UGT1A6_765 Arg184Ser, Genotype Homozygous Arg/Arg, Liver Function Abnormality Present): 45 (33.3%)
- n (%) of patients (UGT1A6_765 Arg184Ser, Genotype Homozygous Ser/Ser, Liver Function Abnormality Absent): 24 (8.8%)
- n (%) of patients (UGT1A6_765 Arg184Ser, Genotype Homozygous Ser/Ser, Liver Function Abnormality Present): 26 (19.3%)
